Data: patent publication US20260256751A1, “COMBINATION OF BETA-2-ADRENERGIC RECEPTOR AGONISTS AND GLP-1 RECEPTOR AGONISTS FOR USE IN TREATING HYPERGLYCAEMIA” (ATROGI AB, priority 2023, published 2026)

Tests used:
[1] = tested on: differentiated L6-myotubes; details: as described in WO 2019/053427, Biological Example 2 therein; cited from earlier work
β2-adrenergic receptor = target: T1, β2-adrenergic receptor (Rattus norvegicus, UniProt P10608); experiment: Glucose uptake in the presence of a selective β2-adrenergic receptor inhibitor (Biological Example 1); type: cell-based; details: L6-myotubes; Compound A (2HCl salt) 1×10^−5 M in the presence of ICI-118551; FIG. 1
T1 construct: L6-myoblasts were grown in Dulbecco's Modified Eagle's Medium (DMEM); endogenous in cells; host or cells: L6 myoblasts differentiated into myotubes
T1 sequence (P10608 whole entry): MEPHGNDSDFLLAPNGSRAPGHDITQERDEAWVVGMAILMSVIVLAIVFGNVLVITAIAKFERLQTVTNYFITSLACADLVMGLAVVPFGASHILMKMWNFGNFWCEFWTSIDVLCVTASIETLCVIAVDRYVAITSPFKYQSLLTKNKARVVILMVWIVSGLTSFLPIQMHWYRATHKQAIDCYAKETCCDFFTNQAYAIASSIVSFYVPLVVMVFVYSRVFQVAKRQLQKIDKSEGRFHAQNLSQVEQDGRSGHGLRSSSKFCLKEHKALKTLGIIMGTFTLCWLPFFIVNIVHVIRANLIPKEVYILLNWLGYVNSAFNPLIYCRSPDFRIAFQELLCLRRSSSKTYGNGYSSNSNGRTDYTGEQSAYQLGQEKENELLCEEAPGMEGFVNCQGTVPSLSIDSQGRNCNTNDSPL
Method: L6-myoblasts were grown in Dulbecco's Modified Eagle's Medium (DMEM) containing 1 g/L glucose supplemented with 10% fetal bovine serum (FBS), 2 mM L-glutamine, 50 U/mL penicillin, 50 g/mL streptomycin and 10 mM HEPES. Cells were plated at 1x 10^5 cells per mL in 24-well plates. After reaching 90% confluence the cells were grown in medium containing 2% FBS for 7 days where upon cells differentiated into myotubes. […] After 1 h 40 min the cells were washed with warm, glucose free medium twice and another portion of agonist was added to the glucose free medium. After another 20 min of incubation the cells were exposed to 50 nM ^3H-2-deoxyglucose for 10 min before washed in ice cold glucose free medium three times and lysed in 400 µl/well 0.2 M NaOH for 1 h at 60° C.

[2] = tested on: differentiated L6-myotubes; details: as described in WO 2019/053427, Biological Example 1 therein; cited from earlier work
[3] = tested on: male C57Bl/6N mice fed with high-fat, high-sucrose diet; experiment: Combination of Compound A and liraglutide in high-fat, high-sucrose diet fed mice (Biological Example 2); type: in vivo; details: Compound A hemi-tartrate 1 mg/kg with liraglutide 0.1 mg/kg, subcutaneously, daily for 2 weeks; compared with liraglutide; FIGS. 2-5
Method: 2.5 Months old male C57Bl/6N mice were grouped caged (4-5 mice per cage), kept at 30° C. and fed with high-fat, high-sucrose diet (45% fat) for 5.5 months. The mice were divided into four groups (2-3 mice per cage) according to their fasting blood glucose levels, glucose tolerance, body weight, body fat and lean mass, and treated daily for 2 weeks, subcutaneously with either vehicle, liraglutide (0.1 mg/kg), Compound A (1 mg/kg), or a mixture of liraglutide (0.1 mg/kg) and Compound A (1 mg/kg). The mice were fasted for 5 h and fasting blood glucose and fasting serum insulin levels were recorded. Glucose (2.5 g/kg lean mass) was injected ip and glucose levels were recorded after 15, 30, 60, 90 and 120 min. The results were used to calculate HOMA-IR (fasting blood glucose (mM)×fasting insulin (μIU/mL)/22.5) and glucose tolerance (area under the curves 0-120 min over the 5.5 mM blood glucose level).

[4] = tested on: differentiated L6-myotubes; experiment: Glucose uptake screen (Biological example 1 of WO 2019/053427); type: cell-based; details: compound at 10 μM, activity relative to isoproterenol at 10 μM, read-out: Biological example 1 of WO 2019/053427 (GU)
Procedure, shortened: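 Uptake was read out as ^3H-2-deoxyglucose (50 nM, 10 min) radioactivity in NaOH lysates. Beforehand, overnight-starved, differentiated L6 myotubes received compound at 1×10^−5 M with ICI-118551 present for 1 h 40 min, followed by fresh agonist for a further 20 min in glucose-free medium.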

[5] = tested on: differentiated L6-myotubes; experiment: cAMP production relative to isoprenaline (Biological example 2 of WO 2019/053427); type: cell-based; details: 0.25 h, compound at 10 μM, activity relative to isoproterenol at 10 μM
Procedure, shortened: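 Values are cAMP levels relative to isoprenaline at equal concentration (final 1×10^−5 M for both). Stimulation lasted 15 min in differentiated L6 myotubes, using HBSS buffer (pH 7.4) containing 1 mM IBMX, 5 mM HEPES and 1% BSA.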

Row | Structure (SMILES) | Emax at 10 µM [4] | Emax at 10 µM [5] | further results
1 | CC(C)(C)NC[C@H](O)c1cncc(F)c1 [Compound A, (R)-2-(tert-Butylamino)-1-(5-fluoropyridin-3-yl)ethan-1-ol] |  |  | cAMP levels induced [1]: without inducing significant levels of cAMP; receptor mediating the glucose uptake promoted by the compound (β2-adrenergic receptor): mediated through the β2-adrenergic receptor; glucose uptake [2]: significant glucose uptake; effects on glucose homeostasis (glycemia, glucose tolerance and insulin sensitivity) [3]: additional positive effects
2 | CCC[C@@H]1CCC[C@@H]([C@H](O)c2cccc(F)c2)N1 [Compound 116, (R)-[(2S,6R)-6-propyl-2-piperidyl](m-fluorophenyl)methanol] | 25 to 50% | < 25% | 
3 | CCCCNC[C@H](O)c1cnc(NC(=O)C(C)C)s1 [Compound 74, N-{5-[(2S)-2-(butylamino)-1-hydroxyethyl]-1,3-thiazol-2-yl}2-methylpropionamide] | 25 to 50% | < 25% | 
4 | CS(=O)(=O)N(Cc1ccccc1)[C@H]1CC[C@H](C[C@@H]2CC[C@H]([C@H](O)c3cccc(F)c3)N2)CC1 [Compound 502, (R)-[(2R,5S)-5-({(1r,4S)-4-[(benzyl)-N-mesylamino]cyclohexyl}methyl)-2-pyrrolidinyl](m-fluorophenyl)methanol] | < 25% | < 25% | 
5 | CCC[C@H]1CCC[C@H]([C@H](O)c2ccccc2F)N1 [Compound 93, (R)-[(2R,6S)-6-propyl-2-piperidyl](o-fluorophenyl)methanol] | 25 to 50% | < 25% | 
6 | CC(C)(C[C@H]1CC[C@H](NC(=O)C2CCC2)CC1)NC[C@H](O)c1cccc(F)c1 [Compound 431, N-[(1R,4r)-4-{2-[(R)-2-(m-fluorophenyl)-2-hydroxyethylamino]-2-methylpropyl}cyclohexyl]cyclobutanecarboxamide] | > 75% | 50 to 75% | 
7 | CC(=O)N(C)[C@H]1CC[C@@H](CC(C)(C)NC[C@H](O)c2cncc(F)c2)CC1 [Compound 507, N-[(1S,4s)-4-{2-[(R)-2-(5-fluoro-3-pyridyl)-2-hdyroxyethylamino]-2-methylpropyl}cyclohexyl]-n-methylacetamide] | 50 to 75% | < 25% | 
8 | O=C(N[C@H]1CC[C@H](CNC[C@H](O)c2cccc(F)c2)CC1)c1ccccc1 [Compound 315, N-[(1R,4r)-4-{[(R)-2-(m-fluorophenyl)-2-hydroxyethylamino]methyl}cyclohexyl]benzamide] | > 75% | < 25% | 
9 | COC(=O)[C@H]1CC[C@@H](CCC(C)(C)NC[C@H](O)c2cccc(F)c2)CC1 [Compound 351, methyl (1S,4s)-4-{3-[(R)-2-(m-fluorophenyl)-2-hydroxyethylamino]-3-methylbutyl}cyclohexanecarboxylate] | > 75% | 25 to 50% | 
10 | O[C@H](c1cccc(F)c1)[C@H]1CC[C@H](Cc2ccc(Cl)cc2)N1 [Compound 393, (R)-{(2R,5R)-5-[(p-chlorophenyl)methyl]-2-pyrrolidinyl}(m-fluorophenyl)methanol] | > 75% | < 25% | 
11 | CS(=O)(=O)Nc1cccc(CC23CCC([C@@H](O)c4cccc(F)c4)(CC2)N3)c1 [Compound 514, (S)-(m-fluorophenyl)(4-{[m-(mesylamino)phenyl]methyl}-7-azabicyclo[2.2.1]hept-1-yl)methanol] | 50 to 75% | < 25% | 
12 | CCOC(=O)CO[C@H]1CC[C@H](C(C)(C)NC[C@H](O)c2cccc(F)c2)CC1 [Compound 398, ethyl[(1R,4r)-4-{1-[(R)-2-(m-fluorophenyl)-2-hydroxyethylamino]-1-methylethyl}cycloehxyloxy]acetate] | > 75% | < 25% | 
13 | CCCS(=O)(=O)N[C@H]1CC[C@H](CC(C)(C)NC[C@H](O)c2cccc(F)c2)CC1 [Compound 451, (R)-2-{1,1-dimethyl-2-[(1r,4R)-4-(propylsulfonylamino)cyclohexyl]ethylamino}-1-(m-fluorophenyl)-1-ethanol] | 50 to 75% | 25 to 50% | 
14 | CO[C@H]1CC[C@@H](CC(C)(C)NC[C@H](O)c2cccc(F)c2)CC1 [Compound 247, (R)-2-{1,1-dimethyl-2-[(1s,4S)-4-methoxycyclohexyl]ethyl-amino}-1-(m-fluorophenyl)-1-ethanol] | > 75% | < 25% | 
15 | CO[C@H]1CC[C@H](CCC(C)(C)NC[C@H](O)c2cncc(F)c2)CC1 [Compound 267, (R)-2-{1,1-dimethyl-3-[(1r,4S)-4-methoxycyclohexyl]propyl-amino}-1-(5-fluoro-3-pyrdiyl)-1-ethanol] | 25 to 50% | < 25% | 
16 | CS(=O)(=O)N(Cc1ccccc1)CC12CCC([C@H](O)c3cccc(F)c3)(CC1)N2 [Compound 537, (R)-(4-{[(benzyl)-N-mesylamino]methyl}-7-azabicyclo[2.2.1]hept-1-yl)(m-fluorophenyl)methanol] | 50 to 75% | 25 to 50% | 
17 | O[C@@H](CNC1(C(F)(F)F)CC1)c1cccc(F)c1 [Compound 118, (R)-1-(m-fluorophenyl)-2-[1-(trifluoromethyl)cyclopro-pylamino]-1-ethanol] | 50 to 75% | < 25% | 
18 | CC(C)(C[C@H]1CC[C@@H](NS(C)(=O)=O)CC1)NC[C@H](O)c1cccc(C#N)n1 [Compound 422, 6-[(S)-2-{1,1-dimethyl-2-[(1s,4R)-4-(mesylamino)cylcohexyl]ethylamino}-1-hydroxyethyl]-2-pyridinecarbonitrile] | 50 to 75% | < 25% | 
19 | CCCS(=O)(=O)N[C@H]1CC[C@@H](CC(C)(C)NC[C@H](O)c2cncc(F)c2)CC1 [Compound 523, (R)-2-{1,1-dimethyl-2-[(1s,4S)-4-(propylsulfonylamin)cyclohexyl]ethylamino}-1-(5-fluoro-3-pyridyl)-1-ethanol] | 50 to 75% | < 25% | 
20 | CC1(C)CCC[C@@H]([C@H](O)c2cccc(F)c2)N1 [Compound 190, (R)-[(S)-6,6-dimethyl-2-piperidyl](m-fluorophenyl)methanol] | > 75% | < 25% | 
21 | CS(=O)(=O)N(Cc1ccccc1)c1cccc(CC23CCC([C@@H](O)c4cccc(F)c4)(CC2)N3)c1 [Compound 512, (S)-[4-({m-[(benzyl)-N-mesylamino]phenyl}methyl)-7-azabicyclo[2.2.1]hept-1-yl](m-fluorophenyl)methanol] | < 25% | < 25% | 
22 | CC(C)(C[C@H]1CC[C@@H](N)CC1)NC[C@H](O)c1cncc(F)c1 [Compound 466, (R)-2-{1,1-dimethyl-2-[(1s,4S)-4-aminocyclohexyl]ethylamino}-1-(5-fluoro-3-pyridyl)-1-ethanol] | 50 to 75% | < 25% | 
23 | CCCCNCC(O)c1ccc(Cl)c(O)c1 (centres unmarked) [Compound 34, 2-(butylamino)-1-(4-chloro-3-hydroxyphenyl)-1-ethanol] | > 75% | < 25% | 
24 | CC(C)(C[C@H]1CC[C@H](C(=O)O)CC1)NC[C@H](O)c1cncc(F)c1 [Compound 356, (1R,4r)-4-{2-[(R)-2-(5-fluoro-3-pyridyl)-2-hydroxyethylamino]-2-methylpropyl}cyclohexanecarboxylic acid] | < 25% | < 25% | 
